This note sets out measurements from PubChem BioAssay AID330 (DTP/NCI, 2004).

The subject of the assay is P388 leukemia ip, CD2F1 mice, survival T/C. Kind of assay: NCI In Vivo Anticancer Drug Screen. Data for tumor model P388 Leukemia (intraperitoneal) in CD2F1 (CDF1) mice. The note with it: endpoint: median survival time, higher = longer survival. An outline of the steps: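 Mice carrying the transplanted tumor received test compound or vehicle. Survival was recorded in each group, and the value is the treated-group measurement divided by that of the vehicle-treated control group.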

Setting [1] is: dose: 6.25 mg/kg/injection, schedule: Q01DX009 (ip), vehicle: Klucel (hydroxypropylcellulose) (HPC).
[2] abbreviates: dose: 12.5 mg/kg/injection, schedule: Q01DX009 (ip), vehicle: Klucel (hydroxypropylcellulose) (HPC).
Where [3] appears, read: dose: 25.0 mg/kg/injection, schedule: Q01DX009 (ip), vehicle: Klucel (hydroxypropylcellulose) (HPC).
[4] abbreviates: dose: 60.0 mg/kg/injection, schedule: Q01DX005 (ip), vehicle: saline with Tween-80.
Setting [5] is: dose: 120.0 mg/kg/injection, schedule: Q01DX005 (ip), vehicle: saline with Tween-80.
The mark [6] stands for this setting: dose: 240.0 mg/kg/injection, schedule: Q01DX005 (ip), vehicle: saline with Tween-80.
Setting [7] is: dose: 12.5 mg/kg/injection, schedule: Q01DX005 (ip), vehicle: saline with Tween-80.
[8] abbreviates: dose: 25.0 mg/kg/injection, schedule: Q01DX005 (ip), vehicle: saline with Tween-80.
Where [9] appears, read: dose: 50.0 mg/kg/injection, schedule: Q01DX005 (ip), vehicle: saline with Tween-80.
[10] abbreviates: dose: 100.0 mg/kg/injection, schedule: Q01DX005 (ip), vehicle: saline with Tween-80.
The mark [11] stands for this setting: dose: 200.0 mg/kg/injection, schedule: Q01DX005 (ip), vehicle: saline with Tween-80.

Each structure is given as a SMILES string. “And” between values parts separate entries of the source, which are not always exact repeats. Equal entries are not always repeated. Toxic doses and inconclusive results are not listed.

For the compound `O=NNc1ccc2cccnc2n1`, the T/C by setting is: (dose: 3.12 mg/kg/injection, schedule: Q01DX009 (ip), vehicle: water) 99 % of control and 115 % of control; (dose: 6.25 mg/kg/injection, schedule: Q01DX009 (ip), vehicle: water) 116 % of control and 123 % of control; (dose: 25.0 mg/kg/injection, schedule: Q01DX009 (ip), vehicle: water) 150 % of control; (dose: 50.0 mg/kg/injection, schedule: Q01DX009 (ip), vehicle: water) 187 % of control and 206 % of control.
As to `CC1=CC(O/C=C2\C(=O)OC3C=CCC23)OC1=O` (stereo not drawn), the T/C (dose: 100.0 mg/kg/injection, schedule: Q04DX002 (ip), vehicle: suspension in saline) was 99 % of control; the T/C (dose: 200.0 mg/kg/injection, schedule: Q04DX002 (ip), vehicle: suspension in saline) was 98 % of control; the T/C (dose: 400.0 mg/kg/injection, schedule: Q04DX002 (ip), vehicle: suspension in saline) was 111 % of control.
In the case of `[Cl][Pt+2][Cl].[NH-]c1cccc(C(F)(F)F)c1.[NH-]c1cccc(C(F)(F)F)c1`, the T/C (dose: 3.12 mg/kg/injection, schedule: Q01DX009 (ip), vehicle: Klucel (hydroxypropylcellulose) (HPC)) was 103 % of control and 111 % of control; the T/C under setting [1] was 97 % of control; the T/C under setting [2] is 111 % of control; the T/C under setting [3] is 106 % of control.
With `Cc1ccccc1-n1cccc1C(=O)O`, the T/C runs as follows: under setting [4], 95 % of control; under setting [5], 93 % of control; under setting [6], 99 % of control.
Turning to `CN1CCCC(CN2c3ccccc3Sc3ccccc32)C1` (stereo not drawn), the T/C reads like this: under setting [7], 100 % of control; under setting [8], 102 % of control; under setting [9], 104 % of control and 105 % of control; under setting [10], 111 % of control.
For the compound `CC1NC(=O)N(C(C)C)C1=O` (stereo not drawn), the T/C is 100 % of control under setting [9], 100 % of control under setting [10] and 106 % of control under setting [11].
Regarding `[C-]#[O+].[C-]#[O+].[C-]#[O+].[CH3][Sn]([c]1ccccc1)[c]1ccccc1.[W].[c-]1[c-][c-][cH-][c-]1`, the T/C is 103 % of control (dose: 100.0 mg/kg/injection, schedule: Q04DX003 (ip), vehicle: saline); 110 % of control (dose: 200.0 mg/kg/injection, schedule: Q04DX003 (ip), vehicle: saline); 110 % of control (dose: 400.0 mg/kg/injection, schedule: Q04DX003 (ip), vehicle: saline).
With `O=C(COC1CCCCC1)OC1CCCCC1`, the T/C is, setting by setting: (dose: 50.0 mg/kg/injection, schedule: Q04DX003 (ip), vehicle: saline with Tween-80) 100 % of control; (dose: 100.0 mg/kg/injection, schedule: Q04DX003 (ip), vehicle: saline with Tween-80) 100 % of control.
For `CN(C)c1nc(N(C)C)n2c(-c3ccccc3[N+](=O)[O-])nnc2n1`, the T/C reads like this: (dose: 50.0 mg/kg/injection, schedule: Q01DX009 (ip), vehicle: saline with Tween-80) 99 % of control; (dose: 100.0 mg/kg/injection, schedule: Q01DX009 (ip), vehicle: saline with Tween-80) 102 % of control; (dose: 200.0 mg/kg/injection, schedule: Q01DX009 (ip), vehicle: saline with Tween-80) 99 % of control.
On to `Clc1ccc(-c2nnc(-c3ccncc3)o2)c(Cl)c1`, for which the T/C under setting [4] is 93 % of control, the T/C under setting [5] is 93 % of control and the T/C under setting [6] was 86 % of control.
Regarding `N=C1OC(C(Cl)(Cl)Cl)N(c2cccc(F)c2)C1=O` (stereo not drawn), the T/C runs as follows: (dose: 60.0 mg/kg/injection, schedule: Q01DX005 (ip), vehicle: Klucel + Tween-80) 100 % of control; (dose: 120.0 mg/kg/injection, schedule: Q01DX005 (ip), vehicle: Klucel + Tween-80) 100 % of control; (dose: 240.0 mg/kg/injection, schedule: Q01DX005 (ip), vehicle: Klucel + Tween-80) 89 % of control.
Regarding `COC(=O)[CH](C[N+](=O)[O-])[Hg][Cl]` (stereo not drawn), the T/C was 100 % of control (dose: 3.12 mg/kg/injection, schedule: Q01DX009 (ip), vehicle: saline with Tween-80); 100 % of control (dose: 6.25 mg/kg/injection, schedule: Q01DX009 (ip), vehicle: saline with Tween-80); 95 % of control (dose: 12.5 mg/kg/injection, schedule: Q01DX009 (ip), vehicle: saline with Tween-80).
In the case of `CN(C)c1ccc2cc(-n3nnc4cc([N+](=O)[O-])ccc43)c(=O)oc2c1`, the T/C under setting [7] is 100 % of control, the T/C under setting [8] is 99 % of control and the T/C under setting [9] is 90 % of control.
`CSc1nc2[nH]c(=O)[nH]c(=O)c2[nH]1`: the T/C under setting [9] is 95 % of control, the T/C under setting [10] is 94 % of control and the T/C under setting [11] is 108 % of control.
As for `COc1cc(C2c3cc4c(cc3OC3(O)C=C(C)OC(=O)C23)OCO4)cc(OC)c1OC` (stereo not drawn), the T/C is 94 % of control (dose: 60.0 mg/kg/injection, schedule: Q01DX005 (ip), vehicle: Klucel (hydroxypropylcellulose) (HPC)); 94 % of control (dose: 120.0 mg/kg/injection, schedule: Q01DX005 (ip), vehicle: Klucel (hydroxypropylcellulose) (HPC)); 110 % of control (dose: 240.0 mg/kg/injection, schedule: Q01DX005 (ip), vehicle: Klucel (hydroxypropylcellulose) (HPC)).
Take `CCOC(=O)N/N=C/c1ccc(N(C)CCC#N)cc1`: the T/C under setting [1] was 90 % of control; the T/C under setting [2] was 100 % of control; the T/C under setting [3] was 97 % of control; the T/C (dose: 50.0 mg/kg/injection, schedule: Q01DX009 (ip), vehicle: Klucel (hydroxypropylcellulose) (HPC)) is 88 % of control and 89 % of control; the T/C (dose: 200.0 mg/kg/injection, schedule: Q01DX009 (ip), vehicle: Klucel (hydroxypropylcellulose) (HPC)) was 90 % of control.
Regarding `N#Cc1ccc(NC(=O)Nc2ccc([N+](=O)[O-])cc2Cl)cc1`, the T/C runs as follows: under setting [4], 93 % of control; under setting [5], 86 % of control; under setting [6], 89 % of control and 92 % of control.
`COC1OCCCO1`: the T/C (dose: 60.0 mg/kg/injection, schedule: Q01DX005 (ip), vehicle: saline) was 103 % of control; the T/C (dose: 120.0 mg/kg/injection, schedule: Q01DX005 (ip), vehicle: saline) was 104 % of control; the T/C (dose: 240.0 mg/kg/injection, schedule: Q01DX005 (ip), vehicle: saline) was 107 % of control.
Turning to `CCCOCn1cc(F)c(=O)n(COCCC)c1=O`, the T/C by setting is: (dose: 5.62 mg/kg/injection, schedule: Q04DX002 (ip), vehicle: water) 95 % of control; (dose: 11.25 mg/kg/injection, schedule: Q04DX002 (ip), vehicle: water) 93 % of control; (dose: 22.5 mg/kg/injection, schedule: Q04DX002 (ip), vehicle: water) 92 % of control; (dose: 45.0 mg/kg/injection, schedule: Q04DX002 (ip), vehicle: water) 92 % of control; (dose: 90.0 mg/kg/injection, schedule: Q04DX002 (ip), vehicle: water) 91 % of control; (dose: 180.0 mg/kg/injection, schedule: Q04DX002 (ip), vehicle: water) 95 % of control.
In the case of `CCOC(=O)Nc1cc2c(c(N)n1)N=C(c1ccc(C)c(C)c1)CN2`, the T/C by setting is: (dose: 3.12 mg/kg/injection, schedule: Q01DX005 (ip), vehicle: saline with Tween-80) 122 % of control; under setting [7], 88 % of control.
Consider `N=C1C=CC(=C(c2ccc(N)cc2)c2ccc(N)cc2)C=C1`, for which the T/C (dose: 6.25 mg/kg/injection, schedule: Q01DX005 (ip), vehicle: saline with Tween-80) is 98 % of control and the T/C under setting [7] is 98 % of control.
